How the values were obtained:
[1] = molecular target: α-glucosidase from Rominococcus obeum (Blautia obeum, UniProt A5ZY13); experiment: Enzymatic kinetics of α-glucosidase inhibition (pNPG substrate); format: biochemical
Procedure: The kinetic studies for PTP1B and α-glucosidase were carried out under the same conditions described in the references.

[2] = tested on: streptozotocin-induced diabetic rats; experiment: Oral glucose tolerance test in streptozotocin-induced diabetic rats; format: in vivo, Wistar rat; design: AUC of the OGTT: unit not given here; details: for glucose blood levels in OGTT compared to untreated animals: after 14 days of administration, ANOVA/Bonferroni
Procedure: (§1) After a week of acclimation, 35 male Wistar rats were given a single intraperitoneal dose of STZ (Sigma Chemical Co. Toluca, Estado de México, Mexico) at a dosage of 45 mg/kg of body weight, after fasting for 12 h overnight with free access to water. To prevent initial drug-induced hypoglycemia mortality, these animals were given a 10% sucrose solution 24 h after administration. STZ was dissolved in 0.1 M of sodium citrate buffer (pH 4.5) and administered in a final volume of 5 mL/kg. A week after STZ injection, diabetes in streptozotocin rats was confirmed by measuring fasting blood glucose (by glucose oxidase method). Animals with a blood glucose (tail vein) above 126 mg/dL were considered diabetic and used for the experiment to create groups 2, 3, 4, 5, 6, and 7 [1, 13]. Blood glucose levels were measured using a glucometer (Accu-Chek Active, Roche, Mannheim, Germany) and reactive strips (Accu-Chek Active Glucose test strips, Roche). The presence of hyperglycemia and insulin level confirmed a model very similar to T2D in humans. For the pharmacological study, the final number of animals was 35 male rats, with 3 rats being sacrificed during the treatment stage. One was administered with FC-114 and two with acarbose. The first rat was damaged during oral glucose administration in the OGTT at week 5, and the other rats had gastrointestinal complications in week 7.
(§2) The diabetic animals in group 2 (untreated) were given 4% v/v aqueous EtOH solution (vehicle of treatments) in a volume of 6.5 mL/kg body weight. The other groups (3–7) received different treatments for 14 days (weeks 5 to 7). […] All of the treatments were at equimolar doses of PIO and adjusted to the weekly weight of each rat. […] The commercial PIO tablet (30 mg) was crushed in 7.5 mL of vehicle and given to each animal in 4.0 mg/mL of suspension. The FC-114 and FC-122 suspensions were created at 6.2 and 6.0 mg/mL, respectively. The commercial acarbose tablet (50 mg) was crushed in 7.5 mL of the vehicle and given to each animal in a suspension of 6.6 mg/mL. Each suspension was used within 2 days of its preparation, and the administration volume was near to 2.5 mL for each rat.
The OGTT was carried out in weeks 3, 4, 5, 6, and 7. Prior to the OGTT, all animal groups fasted overnight for eight hours with free access to water. Each rat was weighed and then received a 2 g/kg glucose overload orally and blood samples were taken from the tail vein [13, 97]. Glucose levels were measured using a glucometer (Accu-Chek Active, Roche, Mannheim, Germany) at 0, 30, 60, 90, 120, and 180 min after glucose administration. The AUC of the OGTT was calculated using the blood glucose concentration over time and the GraphPad Prism 8.0.1 software package (GraphPad Software; Science Inc., San Diego, CA, USA) was used to compare the effectiveness of the treatments.

[3] = tested on: streptozotocin-induced diabetic rats; experiment: Weekly fasting glucose in streptozotocin-induced diabetic rats; format: in vivo, Wistar rat; details: after 7 and 14 days of treatment (weeks 6 and 7)
Procedure: as §1, §2

[4] = cited from earlier work
[5] = tested on: streptozotocin-induced diabetic rats; experiment: Animal weight, food and water consumption in streptozotocin-induced diabetic rats; format: in vivo, Wistar rat; details: 14 days of treatment, weeks 5 to 7
Procedure: Six female (three for each compound: FC-114 and FC-122) (220 ± 10 g, for the acute toxicity assay) and forty male (215 ± 20 g, for the pharmacologic study) albino Wistar rats were acquired from the Isolation and Animal Facility Unit, Facultad de Estudios Superiores Cuautitlán (FESC), Universidad Nacional Autónoma de México (UNAM). They were kept in standard polypropylene boxes under controlled temperature (24 ± 4 °C) on a 12 h light/dark cycle and provided conventional food (formula 5001, Rat Chow) and purified water ad libitum. […] At the end of the experiment, the animals were taken to the humanitarian endpoint by the intraperitoneal (ip) administration of 75 mg/kg of sodium pentobarbital to perform a necropsy in the bioterium of FESC, UNAM. During the necropsy, blood serum was extracted to quantify glucose, triacylglycerides, cholesterol, and insulin. The study was conducted based on the guidelines of the Declaration of Helsinki and approved by the Institutional Review Board: Internal Committee for the Care and Use of Experimentation Animals (CICUAE, according to the initials in Spanish, C23_02 on March 2023) of the FESC UNAM (Mexico). It complies with the Mexican norm for this matter (NOM-062-ZOO-1999, Technical Specifications for the Production, Care, and Use of Laboratory Animals, SAGARPA), as well as the Guide for the Care and Use of Laboratory Animals of the National Research Council and National Institutes of Health (NIH Publications No. 8023, revised 1978).
as §1, §2

humans = details: cited from earlier work
[6] = Cytotoxic effect on Human Foreskin fibroblasts (SRB); format: cell-based; details: HFF-1 human foreskin fibroblasts, HFF-1 cells
Procedure: However, at high concentrations, they can be harmful to cells. For humans, doses less than 100 mg/day are considered safe. […] Therefore, we conducted cytotoxicity assays on Human Foreskin fibroblasts (HFF-1) and an AOT on female Wistar rats to assess their safety.
In a 96-well plate, 7000 cells per well of Human Foreskin fibroblasts (HFF-1) were cultured. […] Untreated cells were also included as a negative control. At the end of the incubation period, the cell contents were precipitated with 50 µL of a 50% aqueous solution of trichloroacetic acid (TCA) at 4 °C for 1 h. The supernatant was discarded and washed 5 times with distilled water. Afterward, the plates were allowed to dry at room temperature. The cell contents were incubated with 100 µL of a 0.04% sulforhodamine B (SRB) solution for 1 h at room temperature. The excess SRB was removed by washing with a 1% aqueous acetic acid solution. […] With the data obtained, the viability of treated cells was calculated by comparing the control without treatment. CC50 value was determined by employing BioStat Pro 5.9.8 software (AnalystSoft Inc., Brandon, FL, USA).

[7] = cited from earlier work; remark: listed apart in the source
[8] = tested on: streptozotocin-induced diabetic rats; details: cited from earlier work
[9] = Week 5 (day 1 of treatment), oral, glibenclamide 0.6, FC-114 51.3, FC-122 49.1, PIO 30, acarbose 54.3 mg/kg/day
[10] = Week 6 (day 7 of treatment), same doses
[11] = Week 7 (day 14 of treatment), same doses

α-glucosidase from Rominococcus obeum, sequence (A5ZY13 entry or part of it): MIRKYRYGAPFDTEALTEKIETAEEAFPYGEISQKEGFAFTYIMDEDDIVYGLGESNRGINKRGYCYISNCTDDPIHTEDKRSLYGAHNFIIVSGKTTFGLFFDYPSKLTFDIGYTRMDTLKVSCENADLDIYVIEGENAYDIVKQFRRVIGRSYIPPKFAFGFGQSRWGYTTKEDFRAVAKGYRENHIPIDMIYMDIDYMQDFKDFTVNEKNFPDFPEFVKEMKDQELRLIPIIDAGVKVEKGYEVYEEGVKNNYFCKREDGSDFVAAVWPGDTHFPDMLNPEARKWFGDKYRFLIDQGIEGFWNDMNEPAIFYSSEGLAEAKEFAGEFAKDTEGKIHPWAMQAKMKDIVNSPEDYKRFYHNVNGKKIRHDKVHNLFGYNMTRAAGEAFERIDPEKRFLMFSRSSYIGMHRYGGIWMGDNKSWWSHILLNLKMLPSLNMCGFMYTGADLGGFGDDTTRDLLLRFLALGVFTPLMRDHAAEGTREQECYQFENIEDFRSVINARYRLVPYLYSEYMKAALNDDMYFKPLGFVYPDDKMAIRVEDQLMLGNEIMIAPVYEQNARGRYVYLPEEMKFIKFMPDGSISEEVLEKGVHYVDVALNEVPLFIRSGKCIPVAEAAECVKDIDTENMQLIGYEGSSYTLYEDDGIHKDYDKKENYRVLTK

**Q.** Which results are given for `C[C@H]1O[C@H](O[C@H]2[C@H](O)[C@@H](O)[C@@H](O[C@H]3[C@H](O)[C@@H](O)C(O)O[C@@H]3CO)O[C@@H]2CO)[C@H](O)[C@@H](O)[C@@H]1N[C@H]1C=C(CO)[C@@H](O)[C@H](O)[C@H]1O` (stereo partly shown) [acarbose]?
**A.** Inhibition type (α-glucosidase) ([1]; Lineweaver-Burk plots): competitive; Ki ([1]; substrate pNPG, Lineweaver-Burk): 26.8 µM; AUC of the OGTT [2, 9]: 81,327; AUC of the OGTT [2, 10]: 81,507; AUC of the OGTT [2, 11]: 71,240; fasting glucose levels [3]: downward trend; effective doses to cause decreases in blood glucose [4]: 75 to 300 mg/kg

**Q.** Which results are given for `COc1ccc(Cl)cc1C(=O)NCCc1ccc(S(=O)(=O)NC(=O)NC2CCCCC2)cc1` [glibenclamide]?
**A.** AUC of the OGTT [2, 9]: 62,022; AUC of the OGTT [2, 10]: 67,311; AUC of the OGTT [2, 11]: 50,874; glucose blood levels in OGTT compared to untreated animals [2]: ranked second; fasting glucose levels [3]: downward trend

**Q.** Which results are given for `CCc1ccc(CCOc2ccc(CC3SC(=O)NC3=O)cc2)nc1` (stereo not shown) [PIO, pioglitazone]?
**A.** AUC of the OGTT [2, 9]: 49,677; AUC of the OGTT [2, 10]: 43,584; AUC of the OGTT [2, 11]: 40,044; glucose blood levels in OGTT compared to untreated animals [2]: significantly improved; effectiveness in lowering blood glucose during the glucose tolerance curve (AUC) ([2]; week 7): most effective; animal weight compared to the untreated group (T2D) [5]: difference in weight; effective doses to cause decreases in blood glucose [4]: 15 to 45 mg/kg

**Q.** For `CC1(C)[C@@H](O[C@H]2O[C@H](C(=O)O)[C@@H](O)[C@H](O)[C@H]2O[C@@H]2O[C@H](C(=O)O)[C@@H](O)[C@H](O)[C@H]2O)CC[C@]2(C)[C@H]3C(=O)C=C4[C@@H]5C[C@@](C)(C(=O)O)CC[C@]5(C)CC[C@@]4(C)[C@]3(C)CC[C@@H]12` [GL, glycyrrhizic acid], which dose considered safe (humans) is on record?
**A.** less than 100 mg/day

**Q.** With `CC1(C)[C@@H](O)CC[C@]2(C)[C@H]3C(=O)C=C4[C@@H]5C[C@@](C)(C(=O)O)CC[C@]5(C)CC[C@@]4(C)[C@]3(C)CC[C@@H]12` [GA, glycyrrhetinic acid] as the molecule, how does the CC50 at 48 h [6] read?
**A.** 62 ± 2 µM

**Q.** What about the LD50 [7] of the same molecule?
**A.** 610 mg/kg

**Q.** And the insulin levels ([8]; 100 mg/kg)?
**A.** increase in insulin levels

**Q.** And the “plasma TAG, total cholesterol, HDL, VLDL, LDL” value ([8]; 100 mg/kg)?
**A.** restored normal levels

**Q.** What about the “blood glucose and insulin levels” value ([8]; oral 100 mg/kg, compared with glibenclamide 600 μg/kg) of the same molecule?
**A.** improved blood glucose and insulin levels
